What was measured:
[1] = Drug excretion in healthy man urine at 500 mg, iv administered as 1 hr infusion measured after 7 days by Liquid scintillation counting; assay type: ADME, organism-based; details: human, in vivo
[2] = Elimination rate constant in plasma of healthy man assessed as doripenem-M-1, dosed at 500 mg, iv administered as 1 hr infusion; assay type: ADME, organism-based; details: human, in vivo
[3] = Tmax in healthy man plasma at 500 mg, iv administered as 1 hr infusion by LC-MS/MS analysis; assay type: ADME, organism-based; details: male, human
[4] = Tmax in healthy man whole blood assessed as total compound-derived radioactivity at 500 mg, iv administered as 1 hr infusion by Liquid scintillation counting; assay type: ADME, organism-based; details: human, in vivo
[5] = Tmax in healthy man plasma assessed as doripenem-M-1 at 500 mg, iv administered as 1 hr infusion by LC-MS/MS analysis; assay type: ADME, organism-based; details: human, in vivo
[6] = Drug excretion in healthy man feces at 500 mg, iv administered as 1 hr infusion measured after 7 days by Liquid scintillation counting; assay type: ADME, organism-based; details: human, in vivo
[7] = AUC (last) in healthy man plasma assessed as doripenem-M-1 at 500 mg, iv administered as 1 hr infusion by LC-MS/MS analysis; assay type: ADME, organism-based; set-up: dose 500 mg, time 0 - last, route intravenous; details: human, in vivo
[8] = Drug excretion in healthy man urine at 500 mg, iv administered as 1 hr infusion measured after 8 to 12 hrs by Liquid scintillation counting; assay type: ADME, organism-based; details: human, in vivo
[9] = Cmax in healthy man plasma assessed as doripenem-M-1 at 500 mg, iv administered as 1 hr infusion by LC-MS/MS analysis; assay type: ADME, organism-based; set-up: dose 500 mg, route intravenous; details: human, in vivo
[10] = Cmax in healthy man whole blood assessed as total compound-derived radioactivity at 500 mg, iv administered as 1 hr infusion by Liquid scintillation counting; assay type: ADME, organism-based; set-up: dose 500 mg, route intravenous; details: human, in vivo
[11] = Half life in healthy man plasma assessed as doripenem-M-1 at 500 mg, iv administered as 1 hr infusion by LC-MS/MS analysis; assay type: ADME, organism-based; details: human, in vivo
[12] = Cmax in healthy man plasma at 500 mg, iv administered as 1 hr infusion by LC-MS/MS analysis; assay type: ADME, organism-based; set-up: dose 500 mg, route intravenous; details: male, human
[13] = Tmax in healthy man plasma assessed as total compound-derived radioactivity at 500 mg, iv administered as 1 hr infusion by Liquid scintillation counting; assay type: ADME, organism-based; details: human, in vivo
[14] = Half life in healthy man plasma assessed as total compound-derived radioactivity at 500 mg, iv administered as 1 hr infusion by Liquid scintillation counting; assay type: ADME, organism-based; details: human, in vivo
[15] = Renal clearance in healthy man assessed as doripenem-M-1, dosed at 500 mg, iv administered as 1 hr infusion; assay type: ADME, organism-based, Kidney; details: human, in vivo
[16] = Elimination rate constant in plasma of healthy man dosed at 500 mg, iv administered as 1 hr infusion; assay type: ADME, organism-based; details: male, human
[17] = Drug excretion in healthy man urine at 500 mg, iv administered as 1 hr infusion measured after 4 hrs by Liquid scintillation counting; assay type: ADME, organism-based; details: human, in vivo
[18] = Elimination rate constant in plasma of healthy man assessed as total compound-derived radioactivity, dosed at 500 mg, iv administered as 1 hr infusion; assay type: ADME, organism-based; details: human, in vivo
[19] = Cmax in healthy man plasma assessed as total compound-derived radioactivity at 500 mg, iv administered as 1 hr infusion by Liquid scintillation counting; assay type: ADME, organism-based; set-up: dose 500 mg, route intravenous; details: human, in vivo
[20] = AUC (0 to infinity) in healthy man plasma assessed as doripenem-M-1 at 500 mg, iv administered as 1 hr infusion by LC-MS/MS analysis; assay type: ADME, organism-based; set-up: dose 500 mg, time infinity, route intravenous; details: human, in vivo
[21] = Renal clearance in healthy man dosed at 500 mg, iv administered as 1 hr infusion; assay type: ADME, organism-based, Kidney; details: male, human, in vivo
[22] = AUC (0 to infinity) in healthy man plasma assessed as total compound-derived radioactivity at 500 mg, iv administered as 1 hr infusion by Liquid scintillation counting; assay type: ADME, organism-based; set-up: dose 500 mg, route intravenous, time infinity; details: human, in vivo
[23] = Drug excretion in healthy man urine at 500 mg, iv administered as 1 hr infusion measured after 12 to 24 hrs by Liquid scintillation counting; assay type: ADME, organism-based; details: human, in vivo
[24] = Half life in healthy man plasma at 500 mg, iv administered as 1 hr infusion by LC-MS/MS analysis; assay type: ADME, organism-based; details: male, human
[25] = Drug excretion in healthy man urine at 500 mg, iv administered as 1 hr infusion measured after 4 to 8 hrs by Liquid scintillation counting; assay type: ADME, organism-based; details: human, in vivo
[26] = AUC (0 to infinity) in healthy man plasma at 500 mg, iv administered as 1 hr infusion by LC-MS/MS analysis; assay type: ADME, organism-based; set-up: dose 500 mg, time infinity, route intravenous; details: male, human
[27] = Drug excretion in healthy man urine at 500 mg, iv administered as 1 hr infusion measured after 0 to 12 hrs by Liquid scintillation counting; assay type: ADME, organism-based; details: human, in vivo
[28] = Clearance in healthy man plasma at 500 mg, iv administered as 1 hr infusion by LC-MS/MS analysis; assay type: ADME, organism-based; details: male, human
[29] = AUC (last) in healthy man whole blood assessed as total compound-derived radioactivity at 500 mg, iv administered as 1 hr infusion by Liquid scintillation counting; assay type: ADME, organism-based; set-up: dose 500 mg, time 0 - last, route intravenous; details: human, in vivo
[30] = AUC (last) in healthy man plasma assessed as total compound-derived radioactivity at 500 mg, iv administered as 1 hr infusion by Liquid scintillation counting; assay type: ADME, organism-based; set-up: dose 500 mg, time 0 - last, route intravenous; details: human, in vivo
[31] = AUC (last) in healthy man plasma at 500 mg, iv administered as 1 hr infusion by LC-MS/MS analysis; assay type: ADME, organism-based; set-up: dose 500 mg, time 0 - last, route intravenous; details: male, human

Drug uptake [1]: 95.28%
kel [2]: 0.275 h⁻¹
Tmax [3]: 1.02 h
Tmax [4]: 1.02 h
Tmax [5]: 1.01 h
Drug uptake [6]: 0.72%
AUC [7]: 4030 ng·h/mL
Drug uptake [8]: 1.62%
Cmax [9]: 1560 ng/mL
Cmax [10]: 13200 ng/mL
t1/2 [11]: 2.54 h
Cmax [12]: 22900 ng/mL
Tmax [13]: 1.02 h
t1/2 [14]: 1.59 h
CLr [15]: 18.9 L/h
k el at 1 h [16]: 0.000183 s⁻¹
Drug uptake [17]: 85.13%
kel [18]: 0.438 h⁻¹
Cmax [19]: 22100 ng/mL
AUC [20]: 4980 ng·h/mL
CL renal at 1 h [21]: 208 mL/min
AUC [22]: 39500 ng·h/mL
Drug uptake [23]: 0.9%
half-life [24]: 1.07 h
Drug uptake [25]: 6.69%
AUC(0-inf) [26]: 31800 ng·h/mL
Drug uptake [27]: 93.44%
clearance [28]: 267 mL/min
AUC [29]: 20200 ng·h/mL
AUC [30]: 37500 ng·h/mL
AUC(0-t) at 1 h [31]: 31500 ng·h/mL
Compound: C[C@@H](O)[C@H]1C(=O)N2[C@@H]1[C@@H](C)C(S[C@@H]1CN[C@H](CNS(N)(=O)=O)C1)=[14C]2C(=O)O [[14C]-DORIPENEM]

Reference: ChEMBL document CHEMBL1275498, “Disposition, metabolism, and excretion of [14C]doripenem after a single 500-milligram intravenous infusion in healthy men” (Antimicrob Agents Chemother, 2008)
